The structures appear in SMILES notation.

For one test, the target named is T1, Carbonic anhydrase 4 (Bos taurus, UniProt Q95323).
T1 sequence (Q95323 whole entry): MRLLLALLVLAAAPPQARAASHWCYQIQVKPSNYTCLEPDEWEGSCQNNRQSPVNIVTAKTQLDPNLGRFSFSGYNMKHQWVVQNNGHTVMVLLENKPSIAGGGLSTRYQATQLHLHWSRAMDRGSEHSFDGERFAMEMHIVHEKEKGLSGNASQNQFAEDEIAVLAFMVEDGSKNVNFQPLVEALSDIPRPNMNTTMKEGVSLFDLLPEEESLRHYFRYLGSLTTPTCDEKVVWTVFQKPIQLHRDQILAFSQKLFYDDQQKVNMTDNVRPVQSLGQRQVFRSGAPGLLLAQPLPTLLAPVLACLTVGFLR

The target in the next test is Carbonic anhydrase 1 (Homo sapiens, UniProt P00915).
Chain of Carbonic anhydrase 1 (P00915 whole entry): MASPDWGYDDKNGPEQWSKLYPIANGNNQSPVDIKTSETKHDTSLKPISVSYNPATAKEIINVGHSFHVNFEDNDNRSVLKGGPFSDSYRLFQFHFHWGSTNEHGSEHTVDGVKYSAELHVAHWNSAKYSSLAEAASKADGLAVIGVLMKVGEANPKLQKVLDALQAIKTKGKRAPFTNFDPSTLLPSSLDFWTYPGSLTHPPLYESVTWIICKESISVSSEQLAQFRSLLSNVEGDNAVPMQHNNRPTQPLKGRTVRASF

Description for Carbonic anhydrase 1: Inhibitory activity against Human carbonic anhydrase I
Description for Carbonic anhydrase 4: Inhibitory activity against bovine carbonic anhydrase IV

Regarding `NS(=O)(=O)c1nc2ccc(OCCOC(=O)CN(CCOCCOCCN(CC(=O)O)CC(=O)OCCOc3ccc4nc(S(N)(=O)=O)sc4c3)CC(=O)O)cc2s1`, the inhibition constant (Ki) came to 5 nM on Carbonic anhydrase 4 and 15 nM on Carbonic anhydrase 1.

As for `NS(=O)(=O)c1ccccc1NC(=O)CN(CCN(CC(=O)O)c1ccccc1O)c1ccccc1O`, the results for the Ki at Carbonic anhydrase 4 and on Carbonic anhydrase 1 were 800 nM and 12500 nM, respectively.

With `NS(=O)(=O)c1ccc(NC(=O)CNCC(=O)O)c(Cl)c1`, the Ki at Carbonic anhydrase 4 came to 165 nM; on Carbonic anhydrase 1, 975 nM.

As for `NS(=O)(=O)c1cc(S(N)(=O)=O)c(NC(=O)CN(CCOCCOCCN(CC(=O)O)CC(=O)O)CC(=O)O)c(Cl)c1Cl`, the figures for the inhibition constant Ki at Carbonic anhydrase 4 and at Carbonic anhydrase 1 were 35 nM and 50 nM, respectively.

As for `NS(=O)(=O)c1ccccc1NC(=O)CN(CC(=O)O)CC(=O)O`, the Ki on Carbonic anhydrase 4 is 1200 nM; on Carbonic anhydrase 1, 25800 nM.

With `NS(=O)(=O)c1nc2ccc(NC(=O)CN(CCN(CC(=O)O)CC(=O)Nc3ccc4nc(S(N)(=O)=O)sc4c3)CC(=O)O)cc2s1`, the Ki on Carbonic anhydrase 4 was 9 nM; at Carbonic anhydrase 1 it was 33 nM.

`NS(=O)(=O)c1ccc(NC(=O)CN(CC(=O)O)CC(=O)O)c(Cl)c1`: the Ki at Carbonic anhydrase 4 is 150 nM; at Carbonic anhydrase 1, 960 nM.

As for `NS(=O)(=O)c1nnc(NC(=O)CN(CCOCCOCCN(CC(=O)O)CC(=O)Nc2nnc(S(N)(=O)=O)s2)CC(=O)O)s1`, the Ki on Carbonic anhydrase 4 came to 8 nM; at Carbonic anhydrase 1, 27 nM.

`NS(=O)(=O)c1nnc(NC(=O)CNCC(=O)O)s1`: the Ki was 265 nM at Carbonic anhydrase 4 and 415 nM at Carbonic anhydrase 1.

With `NS(=O)(=O)c1ccc(NC(=O)CN(CCN(CC(=O)O)c2ccccc2O)c2ccccc2O)c(Br)c1`, the Ki turned out to be 56 nM at Carbonic anhydrase 4 and 175 nM at Carbonic anhydrase 1.

For the molecule `NS(=O)(=O)c1cccc(NC(=O)CN(CCN(CC(=O)O)c2ccccc2O)c2ccccc2O)c1`, the Ki at Carbonic anhydrase 4 is 860 nM; at Carbonic anhydrase 1, 10000 nM.

For the molecule `NS(=O)(=O)c1nnc(NC(=O)CCNC(=O)CN(CCOCCOCCN(CC(=O)O)CC(=O)NCCC(=O)Nc2nnc(S(N)(=O)=O)s2)CC(=O)O)s1`, the Ki at Carbonic anhydrase 4 came to 6 nM; at Carbonic anhydrase 1 it was 76 nM.

In the case of `NS(=O)(=O)c1ccc(CCOC(=O)CN(CCOCCOCCN(CC(=O)O)CC(=O)OCCc2ccc(S(N)(=O)=O)cc2)CC(=O)O)cc1`, the Ki at Carbonic anhydrase 4 was found to be 96 nM; at Carbonic anhydrase 1, 300 nM.

On to `NS(=O)(=O)c1ccc(NNC(=O)CN(CCOCCOCCN(CC(=O)O)CC(=O)O)CC(=O)O)cc1`, for which the results for the Ki at Carbonic anhydrase 4 and on Carbonic anhydrase 1 were 620 nM and 12500 nM, respectively.

Regarding `NS(=O)(=O)c1nc2ccc(NC(=O)CNCC(=O)O)cc2s1`, the figures for the Ki at Carbonic anhydrase 4 and at Carbonic anhydrase 1 were 14 nM and 65 nM, respectively.

For the molecule `NS(=O)(=O)c1cc(S(N)(=O)=O)c(NC(=O)CN(CC(=O)O)CC(=O)O)c(Cl)c1Cl`, the values for the Ki at Carbonic anhydrase 4 and at Carbonic anhydrase 1 were 100 nM and 345 nM, respectively.

With `NS(=O)(=O)c1ccc(CCOC(=O)CNCC(=O)O)cc1`, the Ki was determined as 340 nM on Carbonic anhydrase 4 and 1200 nM at Carbonic anhydrase 1.

In the case of `NS(=O)(=O)c1ccc(CCNC(=O)CN(CCOCCOCCN(CC(=O)O)CC(=O)NCCc2ccc(S(N)(=O)=O)cc2)CC(=O)O)cc1`, the Ki at Carbonic anhydrase 4 was 20 nM; on Carbonic anhydrase 1 it was 160 nM.

On to `NS(=O)(=O)c1ccc(NC(=O)CN(CCN(CC(=O)O)CC(=O)O)CC(=O)O)c(I)c1`, for which the results for the Ki at Carbonic anhydrase 4 and at Carbonic anhydrase 1 were 78 nM and 123 nM, respectively.

As to `NS(=O)(=O)c1cc(S(N)(=O)=O)c(NC(=O)CNCC(=O)O)cc1Cl`, the figures for the Ki at Carbonic anhydrase 4 and on Carbonic anhydrase 1 were 145 nM and 400 nM, respectively.

`NS(=O)(=O)c1nnc(NC(=O)CNCCNCC(=O)O)s1`: the Ki was 130 nM on Carbonic anhydrase 4 and 250 nM at Carbonic anhydrase 1.

`NS(=O)(=O)c1nc2ccc(NC(=O)CNCCNCC(=O)O)cc2s1`: the values for the Ki at Carbonic anhydrase 4 and on Carbonic anhydrase 1 were 12 nM and 56 nM, respectively.

For `NS(=O)(=O)c1ccc(NC(=O)CN(CCN(CC(=O)O)c2ccccc2O)c2ccccc2O)c(F)c1`, the Ki on Carbonic anhydrase 4 was determined as 79 nM; on Carbonic anhydrase 1, 450 nM.

On to `NS(=O)(=O)c1ccc(NC(=O)CNCC(=O)O)c(F)c1`, for which the Ki at Carbonic anhydrase 4 came to 145 nM; at Carbonic anhydrase 1 it was 1300 nM.

Consider `NS(=O)(=O)c1ccc(NC(=O)CNCCNCC(=O)O)c(Cl)c1`, for which the Ki at Carbonic anhydrase 4 stood at 155 nM; at Carbonic anhydrase 1, 900 nM.

`NS(=O)(=O)c1nnc(NC(=O)CN(CCN(CC(=O)O)CC(=O)O)CC(=O)O)s1`: the Ki at Carbonic anhydrase 4 was 37 nM; on Carbonic anhydrase 1, 225 nM.

As to `NS(=O)(=O)c1ccc(NNC(=O)CN(CCN(CC(=O)O)c2ccccc2O)c2ccccc2O)cc1`, the results for the Ki on Carbonic anhydrase 4 and on Carbonic anhydrase 1 were 840 nM and 21000 nM, respectively.

In the case of `NS(=O)(=O)c1nc2ccc(OCCOC(=O)CN(CCN(CC(=O)O)c3ccccc3O)c3ccccc3O)cc2s1`, the inhibitory constant (Ki) was 7 nM on Carbonic anhydrase 4 and 41 nM at Carbonic anhydrase 1.

Take `NS(=O)(=O)c1ccc(NC(=O)CN(CC(=O)O)CC(=O)O)cc1`: the inhibition constant (Ki) on Carbonic anhydrase 4 was 450 nM; at Carbonic anhydrase 1, 20600 nM.

In the case of `NS(=O)(=O)c1cc(S(N)(=O)=O)c(NC(=O)CN(CCN(CC(=O)O)CC(=O)O)CC(=O)O)c(Cl)c1Cl`, the Ki at Carbonic anhydrase 4 came out at 96 nM; on Carbonic anhydrase 1, 130 nM.

`NS(=O)(=O)c1ccc(NNC(=O)CN(CCN(CC(=O)O)CC(=O)O)CC(=O)O)cc1`: the Ki on Carbonic anhydrase 4 is 750 nM; at Carbonic anhydrase 1, 16000 nM.

`NS(=O)(=O)c1nc2ccc(NC(=O)CN(CCN(CC(=O)O)CC(=O)O)CC(=O)O)cc2s1`: the figures for the Ki on Carbonic anhydrase 4 and on Carbonic anhydrase 1 were 11 nM and 48 nM, respectively.

For `NS(=O)(=O)c1ccccc1NC(=O)CNCCNCC(=O)O`, the Ki turned out to be 1020 nM on Carbonic anhydrase 4 and 20500 nM at Carbonic anhydrase 1.

Regarding `NS(=O)(=O)c1cc(S(N)(=O)=O)c(NC(=O)CN(CCOCCOCCN(CC(=O)O)CC(=O)Nc2c(S(N)(=O)=O)cc(S(N)(=O)=O)c(Cl)c2Cl)CC(=O)O)c(Cl)c1Cl`, the results for the Ki at Carbonic anhydrase 4 and at Carbonic anhydrase 1 were 21 nM and 49 nM, respectively.

As for `Cn1nc(S(N)(=O)=O)s/c1=N/C(=O)CNCCNCC(=O)O`, the Ki worked out at 76 nM on Carbonic anhydrase 4 and 275 nM at Carbonic anhydrase 1.

For the molecule `NS(=O)(=O)c1cccc(NC(=O)CN(CCN(CC(=O)O)CC(=O)O)CC(=O)O)c1`, the Ki at Carbonic anhydrase 4 is 750 nM; on Carbonic anhydrase 1, 10000 nM.

For the molecule `Cn1nc(S(N)(=O)=O)s/c1=N/C(=O)CN(CCOCCOCCN(CC(=O)O)CC(=O)/N=c1/sc(S(N)(=O)=O)nn1C)CC(=O)O`, the figures for the Ki at Carbonic anhydrase 4 and on Carbonic anhydrase 1 were 7 nM and 32 nM, respectively.

With `NS(=O)(=O)c1nc2ccc(OCCOC(=O)CN(CCN(CC(=O)O)CC(=O)OCCOc3ccc4nc(S(N)(=O)=O)sc4c3)CC(=O)O)cc2s1`, the Ki at Carbonic anhydrase 4 was 6 nM; at Carbonic anhydrase 1, 25 nM.

With `NS(=O)(=O)c1ccc(COC(=O)CN(CCN(CC(=O)O)c2ccccc2O)c2ccccc2O)cc1`, the figures for the Ki at Carbonic anhydrase 4 and on Carbonic anhydrase 1 were 320 nM and 945 nM, respectively.

`Cn1nc(S(N)(=O)=O)s/c1=N/C(=O)CN(CCN(CCN(CC(=O)O)CC(=O)/N=c1/sc(S(N)(=O)=O)nn1C)CC(=O)O)CC(=O)O`: the Ki on Carbonic anhydrase 4 amounted to 9 nM; on Carbonic anhydrase 1, 54 nM.

As to `NS(=O)(=O)c1ccc(CCNC(=O)CNCC(=O)O)cc1`, the values for the Ki on Carbonic anhydrase 4 and at Carbonic anhydrase 1 were 257 nM and 3450 nM, respectively.

Turning to `NS(=O)(=O)c1ccc(NC(=O)CNCC(=O)O)c(Br)c1`, the values for the Ki at Carbonic anhydrase 4 and on Carbonic anhydrase 1 were 57 nM and 610 nM, respectively.

For `NS(=O)(=O)c1ccc(NC(=O)CNCC(=O)O)cc1`, the Ki at Carbonic anhydrase 4 came out at 450 nM; on Carbonic anhydrase 1 it was 21300 nM.

Take `NS(=O)(=O)c1nnc(NC(=O)CCNC(=O)CN(CC(=O)O)CC(=O)O)s1`: the figures for the inhibition constant (Ki) at Carbonic anhydrase 4 and at Carbonic anhydrase 1 were 45 nM and 268 nM, respectively.

In the case of `NS(=O)(=O)c1nnc(NC(=O)CCNC(=O)CN(CCOCCOCCN(CC(=O)O)CC(=O)O)CC(=O)O)s1`, the Ki at Carbonic anhydrase 4 amounted to 13 nM; on Carbonic anhydrase 1 it was 120 nM.

With `NS(=O)(=O)c1ccc(CNC(=O)CNCC(=O)O)cc1`, the Ki came to 279 nM on Carbonic anhydrase 4 and 3600 nM at Carbonic anhydrase 1.

Consider `NS(=O)(=O)c1ccc(NC(=O)CN(CCN(CC(=O)O)c2ccccc2O)c2ccccc2O)c(Cl)c1`, for which the values for the Ki on Carbonic anhydrase 4 and on Carbonic anhydrase 1 were 108 nM and 870 nM, respectively.

For `NS(=O)(=O)c1ccc(COC(=O)CN(CCN(CC(=O)O)CC(=O)O)CC(=O)O)cc1`, the Ki at Carbonic anhydrase 4 is 335 nM; on Carbonic anhydrase 1 it was 850 nM.

For the molecule `NS(=O)(=O)c1ccc(COC(=O)CN(CCN(CC(=O)O)CC(=O)OCc2ccc(S(N)(=O)=O)cc2)CC(=O)O)cc1`, the Ki at Carbonic anhydrase 4 was 200 nM; on Carbonic anhydrase 1, 460 nM.

On to `NS(=O)(=O)c1nnc(NC(=O)CN(CC(=O)O)CC(=O)O)s1`, for which the Ki at Carbonic anhydrase 4 came to 240 nM; on Carbonic anhydrase 1, 410 nM.

Turning to `NS(=O)(=O)c1ccccc1NC(=O)CN(CCN(CC(=O)O)CC(=O)Nc1ccccc1S(N)(=O)=O)CC(=O)O`, the Ki on Carbonic anhydrase 4 was 650 nM; on Carbonic anhydrase 1, 8100 nM.

Consider `Cn1nc(S(N)(=O)=O)s/c1=N/C(=O)CN(CCOCCOCCN(CC(=O)O)CC(=O)O)CC(=O)O`, for which the inhibition constant Ki on Carbonic anhydrase 4 was 16 nM; on Carbonic anhydrase 1 it was 66 nM.

For the molecule `NS(=O)(=O)c1nc2ccc(NC(=O)CN(CCN(CC(=O)O)c3ccccc3O)c3ccccc3O)cc2s1`, the Ki on Carbonic anhydrase 4 is 13 nM; at Carbonic anhydrase 1 it was 52 nM.

Consider `NS(=O)(=O)c1ccc(NC(=O)CN(CCN(CC(=O)O)CC(=O)O)CC(=O)O)c(F)c1`, for which the values for the Ki on Carbonic anhydrase 4 and on Carbonic anhydrase 1 were 40 nM and 360 nM, respectively.

As to `NS(=O)(=O)c1cc(S(N)(=O)=O)c(NC(=O)CN(CCOCCOCCN(CC(=O)O)CC(=O)Nc2cc(Cl)c(S(N)(=O)=O)cc2S(N)(=O)=O)CC(=O)O)cc1Cl`, the Ki on Carbonic anhydrase 4 came out at 36 nM; on Carbonic anhydrase 1, 50 nM.

With `NS(=O)(=O)c1ccc(NC(=O)CNCCNCC(=O)O)c(I)c1`, the results for the Ki on Carbonic anhydrase 4 and at Carbonic anhydrase 1 were 115 nM and 430 nM, respectively.

With `Cn1nc(S(N)(=O)=O)s/c1=N/C(=O)CN(CC(=O)O)CC(=O)O`, the Ki on Carbonic anhydrase 4 came to 106 nM; at Carbonic anhydrase 1, 520 nM.

For `NS(=O)(=O)c1ccc(NC(=O)CN(CCN(CC(=O)O)c2ccccc2O)c2ccccc2O)cc1`, the Ki is 320 nM on Carbonic anhydrase 4 and 11500 nM on Carbonic anhydrase 1.

Turning to `NS(=O)(=O)c1cc(S(N)(=O)=O)c(NC(=O)CN(CCOCCOCCN(CC(=O)O)CC(=O)O)CC(=O)O)cc1Cl`, the Ki at Carbonic anhydrase 4 is 65 nM; at Carbonic anhydrase 1, 93 nM.

These data come from ChEMBL document CHEMBL1135903 (J Med Chem, 2002).
